Experimental data from patent publication US10323020B2, “Substituted piperidinyl tetrahydroquinolines” (Bayer Pharma Aktiengesellschaft, priority 2013, dated 2019).
pIC50: −log10 of the molar value.

Experiments:
[1] = system: diabetic (ZDFfa/fa) and healthy rats (Wistar); experiment: Assay of perfusion-enhancing substances (microcirculation), laser doppler at the paw; format: in vivo, rat
Excerpt: In diabetic (ZDFfa/fa) and healthy rats (Wistar), a laser doppler probe was fastened under anaesthesia conditions (isoflurane anaesthesia) at the sole of the paw for measuring cutaneous microcirculation. The test animals were once treated orally with the test substances. During the experiment, microperfusion and temperature of the lower extremities were documented continuously. Here, a temperature-sensitive laser doppler probe (Periflux, O2C) was fastened with adhesive to the paws of the animals, allowing the measurement of microperfusion and skin temperature. The microcirculation measurement values were measured on both paws 30 min after oral administration of the test substance. […] Also stated is the MED for the significant increase of skin temperature (ttest).
Microcirculation data for adrenoreceptor α2C receptor antagonist of the compound of Example 8 and for the comparative substance ORM12741, an AR α2c receptor antagonist from Orion, are shown in Table 3: […]

[2] = system: conscious female Wistar rats; experiment: Radiotelemetric measurement of blood pressure and heart rate of conscious rats; format: in vivo, rat
Excerpt: A commercially available telemetry system from Data Sciences International DSI, USA, was employed for the measurements on conscious rats described below. The system consists of 3 main components: (1) implantable transmitters (Physiotel® telemetry transmitter), (2) receivers (Physiotel® receiver), which are linked via a multiplexer (DSI Data Exchange Matrix) to a (3) data acquisition computer. The telemetry system makes it possible to continuously record blood pressure, heart rate and body motion of conscious animals in their usual habitat.
The studies were conducted on adult female Wistar rats with a body weight of >200 g. After transmitter implantation, the experimental animals were housed singly in type III Makrolon® cages. They had free access to standard feed and water. The day/night rhythm in the test laboratory was set by changing the illumination of the room.
The telemetry transmitters used (PA-C40, DSI) were surgically implanted under aseptic conditions in the experimental animals at least 14 days before the first experimental use.
For the implantation, the fasted animals were anaesthetized with isoflurane (IsoFlo®, Abbott, initiation 5%, maintenance 2%) and shaved and disinfected over a large area of their abdomens. […]
Each of the instrumented rats living in the system was assigned a separate receiving antenna (RPC-1 Receiver, DSI). […] The signals emitted were detected online by a data acquisition system (Dataquest™ A.R.T. for Windows, DSI) and processed accordingly.
In the standard procedure, the following were measured for 10-second periods in each case: (1) systolic blood pressure (SBP), (2) diastolic blood pressure (DBP), (3) mean arterial pressure (MAP) and (4) heart rate (HR) and (5) activity (ACT). These parameters were measured over 24 hours after administration.
The acquisition of measurements was repeated under computer control at 5-minute intervals. The source data obtained as absolute values were corrected in the diagram with the currently measured barometric pressure (Ambient Pressure Reference Monitor, APR-1, DSI). […]

Wistar rat = experiment: Measurement of blood flow and blood pressure in rats (femoral flow), Wistar rat; format: in vivo
Procedure: (§1) Wistar rats (Hsd Cpb:Wu) of a weight of 250-350 g or ZDF rats (ZDF/Crl-Lepr fa/fa) of a weight of 330-520 g were anesthetized using 2.5% isoflurane in an oxygen/laughing gas mixture (40:60). To determine the blood flow in the carotid artery and the femoral artery, the anesthetized rat was brought into a supine position, and the left carotid artery and the right femoral artery are then carefully exposed. Blood flow was measured by placing flow probes (Transonic Flowprobe) at the vessels. By introducing a PE50 artery catheter into the left femoral artery, blood pressure and heart rate were determined (Transducer Ref. 5203660: from Braun CH). The substances were administered as a bole injection or a continuous infusion via a venous catheter in the left femoral vein.
(§2) Following the preparation of the animals, there was a 5 min baseline interval. Infusion of the AR alpha2C receptor antagonist was then started. In the steady state (32 min after the start of the experiment), the femoral flow was determined in relation (% difference) to the initial flow.
(§3) At the same time, no changes in blood pressure and heart rate were measured. Placebo: 10% ethanol/40% PEG400/50% NaCl.

[3] = system: diabetic ZDF fa/fa animals; experiment: Measurement of blood flow and blood pressure in rats (femoral flow), ZDF rat; format: in vivo; details: for Change in the femoral flow in %: ZDF rat (n = 3), steady state 32 min, mean
Procedure: as §1, §2, §3

[4] = molecular target: recombinant human α2C receptor (Homo sapiens (Human), UniProt P18825); experiment: Antagonism against the adrenoreceptor α2C (luminescence, noradrenaline-stimulated CHO cells); format: cell-based; details: noradrenaline 20 nM; CHO cell line with Gαqi3 and mtOb
Procedure: Antagonism against the adrenoreceptor α1A was tested using a recombinant human α1A receptor CHO cell line which additionally also recombinantly expresses mtAeq (mitochondrial aequorin). Antagonism against the adrenoreceptor α2A was tested using a recombinant human α2A-Gα16 receptor fusion protein CHO cell line (PerkinElmer Life Sciences) which additionally also recombinantly expresses mtAeq. Antagonism against the adrenoreceptor α2B was tested using a recombinant human α2B receptor CHO cell line (PerkinElmer Life Sciences) which additionally also recombinantly expresses mtAeq. Antagonism against the adrenoreceptor α2C was tested using a recombinant human α2C receptor CHO cell line which additionally also recombinantly expresses a chimaric G protein (Gαqi3) and mtOb (mitochondrial obelin).
The cells were cultivated at 37° C. and 5% CO2 in Dulbecco's modified Eagle's Medium/NUT mix F12 with L-glutamine which additionally contains 10% (v/v) inactivated foetal calf serum, 1 mM sodium pyruvate, 0.9 mM sodium bicarbonate, 50 U/ml penicillin, 50 μg/ml streptomycin, 2.5 μg/ml amphotericin B and 1 mg/ml Geneticin. The cells were passaged with enzyme-free Hank's-based cell dissociation buffer. All cell culture reagents used were from Invitrogen (Carlsbad, USA).
Luminescence measurements were carried out on white 384-well microtitre plates. 2000 cells/well were plated in a volume of 25 μl and cultivated for one day at 30° C. and 5% CO2 in cell culture medium with coelenterazine (α2A and α2B: 5 μg/ml; α1a/c and α2C: 2.5 μg/ml). Serial dilutions of the test substances (10 μl) were added to the cells. After 5 minutes, noradrenaline was added to the cells (35 μl; final concentrations: 20 nM (α1a/c and α2C) or 200 nM (α2A and α2B)), and the emitted light was measured for 50 seconds using a CCD (charge-coupled device) camera (Hamamatsu Corporation, Shizuoka, Japan) in a light-tight box. The test substances were tested up to a maximum concentration of 10 μM. The IC50 values were calculated from the appropriate dose-response curves.

[5] = during infusion, up to 1 μg/kg/min

recombinant human α2C receptor, sequence (P18825 whole entry, the tested form may be a part): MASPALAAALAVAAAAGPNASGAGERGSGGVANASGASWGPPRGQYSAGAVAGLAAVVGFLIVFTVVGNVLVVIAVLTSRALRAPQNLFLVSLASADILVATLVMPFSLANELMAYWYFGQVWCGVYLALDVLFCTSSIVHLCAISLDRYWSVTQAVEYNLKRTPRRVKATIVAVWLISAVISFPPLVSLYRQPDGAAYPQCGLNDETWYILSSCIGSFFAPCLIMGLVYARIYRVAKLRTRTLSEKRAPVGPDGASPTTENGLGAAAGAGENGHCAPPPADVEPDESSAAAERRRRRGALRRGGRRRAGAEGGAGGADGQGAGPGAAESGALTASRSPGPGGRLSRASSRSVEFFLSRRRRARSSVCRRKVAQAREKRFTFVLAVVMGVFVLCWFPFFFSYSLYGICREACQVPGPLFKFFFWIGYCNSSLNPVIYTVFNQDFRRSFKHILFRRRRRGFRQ

In the case of `O=C(c1cnc(N2CC3(COC3)C2)nc1)N1CCC(N2CCc3ccccc3C2)CC1` [Example 8, [4-(3,4-Dihydroisoquinolin-2(1H)-yl)piperidin-1-yl][2-(2-oxa-6-azaspiro[3.3]hept-6-yl)pyrimidin-5-yl]methanone], the “factor by which microcirculation is improved at the MED compared to placebo” value ([1]; single oral dose at MED, 30 min after administration) was 1.8 x, the MED microcirculation ([1]; single oral dose, measured 30 min after administration, significant vs placebo) was 0.03 mg/kg and the MED skin temperature ([1]; single oral dose, significant increase of skin temperature (ttest)) was 0.01 mg/kg. For the same compound, the heart rate ([2]; oral 3 and 10 mg/kg) was “slight transient increase in the heart rate”, the “haemodynamic effects (blood pressure, heart rate)” value ([2]; up to an oral dose of 1 mg/kg) was “no haemodynamic effects” and the “Change in the femoral flow in %” value (Wistar rat; Wistar rat (n = 7), 1 μg/kg/min infusion, steady state 32 min, mean) was −6.7 (n = 7) %. For the same compound, the “femoral flow (in words)” value (Wistar rat; Wistar rat, up to a dose of 1 μg/kg/min) was “no increase in femoral flow”, the “blood pressure (in words)” value (Wistar rat; [5]) was “no changes” and the “heart rate (in words)” value (Wistar rat; [5]) was “no changes”. For the same compound, the “Change in the femoral flow in %” value ([3]; 0.1 μg/kg/min infusion) was 12.3%, the “Change in the femoral flow in %” value ([3]; 0.3 μg/kg/min infusion) was 65.0% and the “Change in the femoral flow in %” value ([3]; 1 μg/kg/min infusion) was 131.3%. For the same compound, the “femoral flow (in words)” value ([3]; diabetic ZDF fa/fa animals, doses of 0.1, 0.3 and 1 μg/kg) was “dose-dependent increase in femoral flow” and the pIC50 [4] was 7.64.
